# Data published in BindingDB's records for doi:10.7270/Q2CF9NKD (Burnham Center For Chemical Genomics, 2010).
# Target: Intestinal-type alkaline phosphatase (Homo sapiens, UniProt P09923)
# Assay: activation of human intestinal alkaline phosphatase – biochemical, luminescent, uHTS hits, set 2, dose response (AID 488817)
# Intestinal-type alkaline phosphatase, sequence (P09923 whole entry): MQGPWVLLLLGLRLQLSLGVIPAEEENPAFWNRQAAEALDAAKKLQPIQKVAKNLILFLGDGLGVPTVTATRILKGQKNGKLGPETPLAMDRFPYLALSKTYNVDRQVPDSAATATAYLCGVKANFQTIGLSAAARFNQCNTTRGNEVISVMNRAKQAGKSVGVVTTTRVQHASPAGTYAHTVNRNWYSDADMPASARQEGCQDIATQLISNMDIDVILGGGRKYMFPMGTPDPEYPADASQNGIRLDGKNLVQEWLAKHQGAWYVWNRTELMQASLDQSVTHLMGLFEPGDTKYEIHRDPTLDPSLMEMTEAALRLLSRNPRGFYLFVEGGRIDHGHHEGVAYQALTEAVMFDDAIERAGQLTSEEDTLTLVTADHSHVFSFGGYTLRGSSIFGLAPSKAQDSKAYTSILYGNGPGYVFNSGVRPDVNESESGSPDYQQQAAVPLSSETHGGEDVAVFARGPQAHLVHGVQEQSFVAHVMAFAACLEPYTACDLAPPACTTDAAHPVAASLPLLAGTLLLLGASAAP
row,EC50 [µM],Compound
1,31,O=c1c2ccccc2nc(N=NCc2c(O)ccc3ccccc23)n1O [SMR000145705]
2,12.4,O=C(Nn1c(O)csc1=S)C(=O)Nn1c(O)csc1=S [SMR000349781]
3,8.77,O=Nc1[nH]c(=O)c(CC(=O)c2ccccc2)nc1NO [SMR000539633]

# Further lines, the compound ahead of its results:
row,Compound,EC50 [µM]
1,Cc1c(C(=O)NN=Cc2ccc(O)cc2O)[nH][nH]c1=O,11.3
2,"Cc1cc(Br)ccc1SCC(=O)OCC(=O)C(C#N)c1nc2ccccc2[nH]1 (stereo not given) [2-[(4-bromo-2-methylphenyl)thio]acetic acid [3-cyano-3-(1,3-dihydrobenzimidazol-2-ylidene)-2-oxopropyl] ester]",27.5
3,C=c1[nH]n(-c2nc3ccccc3[nH]2)c(=O)c1=CN(C)C [(4E)-2-(1H-benzimidazol-2-yl)-4-(dimethylaminomethylidene)-5-methyl-pyrazol-3-one],23.2
4,CCc1ccc(CN=Nc2ncnc3nc[nH]c23)cc1 [MLS000419199],12.5
5,Cn1c(C(C#N)C(=O)c2ccc(Br)s2)nc2ccccc21 (stereo not given) [MLS001167394],60
6,"COc1cccc(C=NNC(=O)c2[nH][nH]c(=O)c2C)c1O [N'-[(E)-(5-methoxy-6-oxidanylidene-cyclohexa-2,4-dien-1-ylidene)methyl]-4-methyl-5-oxidanylidene-1,4-dihydropyrazole-3-carbohydrazide]",9.07
7,"CCOC(=O)c1c(C)[nH]c(C(=O)N/N=C/C2C=C([N+](=O)[O-])C=CC2=O)c1C (stereo not given) [ethyl 2,4-dimethyl-5-[[[(E)-(3-nitro-6-oxocyclohexa-2,4-dien-1-ylidene)methyl]amino]carbamoyl]-1H-pyrrole-3-carboxylate]",11.4
